# Assay results taken from ChEMBL document CHEMBL1139592, “Quantitative structure-activity relationship studies for antioxidant hydroxybenzalacetones by quantum chemical- and 3-D-QSAR(CoMFA) analyses” (Bioorg Med Chem Lett, 2005).
# Species: Oryctolagus cuniculus
# Assay: Inhibitory concentration against peroxidation of rabbits red blood cell (RBC) membrane ghost induced by gamma-ray irradiation
# Type: functional
# Conditions: light or radiation study
row,SMILES,IC50
1,COc1cc(/C=C/C(C)=O)ccc1O [DEHYDROZINGERONE],11.5 µM
2,CC(=O)/C=C/c1cccc(C(C)(C)C)c1O,2.19 µM
3,COc1cccc(/C=C/C(C)=O)c1O,3.25 µM
4,CC(=O)/C=C/c1ccc(O)cc1,66.1 µM
5,COc1cc(/C=C/C(C)=O)cc(OC)c1O,2.52 µM
6,CCOc1cccc(/C=C/C(C)=O)c1O,3.31 µM
7,CC(=O)/C=C/c1cccc(F)c1O,51.2 µM
8,CC(=O)/C=C/c1cc(C)c(O)c(C)c1,6.32 µM

# Further lines, results first:
row,IC50,SMILES
1,35.5 µM,COc1ccc(/C=C/C(C)=O)c(O)c1
2,60.3 µM,CC(=O)/C=C/c1cc(Cl)ccc1O
3,8 µM,CC(=O)/C=C/c1cc(C)ccc1O
4,3.98 µM,COc1ccc(O)c(/C=C/C(C)=O)c1
5,1.43 µM,CC(=O)/C=C/c1cc(O)ccc1O
6,1.96 µM,CC(=O)/C=C/c1cccc(O)c1O
7,3.63 µM,CC(=O)/C=C/c1cccc(C)c1O
8,8 µM,CC(=O)/C=C/c1cc(C(C)(C)C)ccc1O
9,37.8 µM,CC(=O)/C=C/c1ccccc1O
10,2.34 µM,CC(=O)/C=C/c1ccc(O)c(O)c1
